Read-outs that look alike come from different tables or passages of the source.

Kd and Anxiogenic behaviour data for two molecules are collected here from paper PMC11927431 (eGastroenterology, 2025).

The target of one data set is CB1R (Mus musculus, UniProt P47746). Put plainly: Radioligand saturation binding assay on brain membrane homogenates. The settings on record: read-out: Kd ± S.E.M., 30°C, 60 min.
For data set [1] the following is noted: 3 mg/kg; cited from earlier work.

Chain of CB1R (P47746 whole entry): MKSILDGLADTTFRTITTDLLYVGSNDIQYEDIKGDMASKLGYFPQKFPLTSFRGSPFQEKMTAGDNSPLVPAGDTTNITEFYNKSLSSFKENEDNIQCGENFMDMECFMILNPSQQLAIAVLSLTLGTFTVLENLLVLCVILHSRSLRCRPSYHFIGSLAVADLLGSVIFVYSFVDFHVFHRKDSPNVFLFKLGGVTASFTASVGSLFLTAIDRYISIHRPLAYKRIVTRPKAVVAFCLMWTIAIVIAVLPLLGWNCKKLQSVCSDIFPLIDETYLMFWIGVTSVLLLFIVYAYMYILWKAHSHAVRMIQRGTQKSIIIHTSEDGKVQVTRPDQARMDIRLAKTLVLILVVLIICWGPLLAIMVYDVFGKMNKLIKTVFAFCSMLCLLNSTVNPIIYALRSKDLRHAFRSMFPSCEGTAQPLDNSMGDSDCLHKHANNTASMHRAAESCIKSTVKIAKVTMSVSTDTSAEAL

Take `CCCCCCC(C)(C)c1ccc([C@@H]2C[C@H](O)CC[C@H]2CCCO)c(O)c1` [[^3H]-CP55.940]: the Kd on CB1R (CB1^IEC-/- mouse brain membrane homogenate) came to 1.7 nM; at CB1R (CB1^f/f mouse brain membrane homogenate), 1.68 nM. `Cc1c(C(=O)NN2CCCCC2)nn(-c2ccc(Cl)cc2Cl)c1-c1ccc(Cl)cc1` [rimonabant]: in data set [1], the Anxiogenic behaviour result was “induced significant anxiety”.

The Kd is a measure of binding affinity in units of concentration.
